Assay results from PMC12313019, “Fibrotic lung ECM upregulates SDC4/integrin-αvβ1 interaction and the interfering peptide SDC4_87-131 and its derivative peptides alleviate pulmonary fibrosis” (Regenerative Biomaterials, 2025).

How the values were obtained:
SDC4/integrin-αv [1] = assay: Duolink-PLA, SDC4/integrin-αv interaction in BLM lung tissue; format: in vivo, mouse; settings: SDC4_87-131 1 mg/kg ITD q3d; C8 10 mg/kg IP qd; Anti-SDC4(93-121) 8 mg/kg ITD day 3 and 10; n=5
Description: (§1) After the mice were anesthetized (1% sodium pentobarbital 50 mg/kg was injected intraperitoneally), 150 μL of bleomycin (BLM, 5 mg/mL, BIO-000001) was inhaled into the lungs of the mice by tracheal inhalation instillation. One day later, the mice were randomly divided into model and drug treatment groups, and the mice in the control group were only subjected to saline inhalation.
(§2) Cells or tissue slices were attached to slides, fixed and permeabilized and blocked with Duolink^TM (Merck, MO, USA) blocking buffer. Antibodies against the extracellular domain of SDC4 (5G9, mouse IgG, SCBT #sc-12766), integrin-αv (rabbit IgG, CST #4711) and integrin-β1 (rabbit IgG, CST #34971) were diluted and added to the samples and incubated overnight at 4°C. After washing, PLUS and MINUS (proximity ligation assay, PLA) probes were added to the samples and incubated at 37°C for 1 h. After washing, the samples were sequentially incubated with PLUS and MINUS (PLA) probes, ligation buffer and amplification buffer containing polymerase. Finally, the samples were mounted with in situ mounting medium containing DAPI. Images were acquired using a Leica SP5 confocal microscope (Leica Biosystems, Germany) and quantitative analysis was performed using ImageJ software.

SDC4/integrin-β1 = assay: Duolink-PLA, SDC4/integrin-β1 extracellular interaction in fibroblast; format: cell-based, mouse; settings: SDC4_87-131 100 nM; with Anti-SDC4(93-121), n=5
Description: (§3) Decellularized lung ECM (dECM) was prepared as described in previous study. 2 × 10^5 cells/mL NIH3T3 cells (mouse […], purchased from the Stem Cell Bank of the Chinese Academy of Sciences, Shanghai, China) were seeded on the dECM slices attached to the bottom of the culture dish and cultured in DMEM medium containing 0.5% fetal bovine serum (Gibco, Waltham, MA, USA) at 37°C and 5% CO2.
as §2

SDC4/integrin-αv [2] = assay: Duolink-PLA, SDC4/integrin-αv extracellular interaction in fibroblast; format: cell-based, mouse; settings: SDC4_87-131 100 nM; with Anti-SDC4(93-121), n=5
Description: as §3, §2

pan-integrins = assay: FN-coating cell adhesion assay (pan-integrins activation); format: cell-based, mouse; settings: 100 nM, n=5
Description: 10 μg/mL Fibronectin (Merck, #10838039001) was dissolved in serum-free DMEM medium and dropped into a 96-well plate, 50 μL per well. The plate was incubated at 4 °C overnight. After blocking with 3% bovine serum albumin at room temperature for 30 min, 4×10^4 cells were inoculated into each well. After incubation for 30 min, the cells were washed, fixed, and stained with crystal violet (5 mg/mL) for 30 min. Then after the crystal violet was dissolved, it was detected using an ELISA reader at 595 nm.

cell migration = settings: ref [39]; cited from earlier work
Source text: SDC4_87-131 is a synthetic peptide of the N87-M131 segment of the extracellular domain of SDC4 (Supplementary Figure S9A). […] Comparing the effects of ... || Syndecans and integrins collaboratively regulate FA formation and cell adhesion. PKCα is known to modulate integrin-mediated FAK phosphorylation and FA assembly. Inhibition of PKCα not only blocks NF-κB activation but also reduces FAK phosphorylation. Conversely, FAK activation can induce NF-κB activity, highlighting a bidirectional crosstalk between the SDC4/PKCα/NF-κB and integrin/FAK pathways.

integrin-β1 = assay: Flow cytometry of integrin-β1 activation (9EG7) in fibroblast; format: cell-based, mouse; settings: SDC4_87-131 100 nM, C8 20 nM, 48 h
Description: as §3
The single cell suspension of mouse lung tissue was obtained by grinding. After the remaining red blood cells were lysed with ACK Lysis Buffer (TBD, NH4CL2009), 1×10^6 cells/100 μL of cells were added with Fixable Viability Stain 780 (BD, #565388). After incubation at room temperature in the dark for 10-15 min, the suspension was washed twice with PBS containing 1%-2% FBS. The FCR antibody TruStain FcX™ PLUS (BD, #156603) was added to the cell suspension at a ratio of 0.25 μL:100 μL and blocked on ice for 10 min. Then, the antibody was incubated at an appropriate concentration and time according to the manufacturer's instructions. Antibodies include CD45 (Biolegend, #157619), CD140a (Thermo Fisher, #25-1401-82), SDC-4 (Sino Biological, #50726-R112-P), SP-C (Bioss, #bs-10067R-FITC) and Integrin-β1 (9Eg7, BD, 553715), and AF647 anti-Rat (CST, #4418S) was used as the secondary antibody. After incubation, cells were washed and resuspended, and detected using LSRFortessaX-20 (BD).

integrin-αvβ1 = integrin-αvβ1 (Homo sapiens, UniProt P05556+P06756); assay: SPR binding of peptides to integrin-αvβ1 (Biacore 8K+); settings: 25°C, Figure 7E
Description: The Biacore 8K+ system (GE Healthcare) was used at 25°C. The ligand integrin-αvβ1 (1 mg/mL) was routinely coupled to the sensor chip (Series S Sensor Chip CM5, Cytiva, #100530). The peptide samples SDC4_87-131 and CS-1, -2, -3, -4, -8, -9, -10 were dissolved in PBS, and then, the samples with different concentration gradients (0.78, 1.56, 3.125, 6.25, 12.5, 25, 50, 100 μM) were injected, respectively, under the driving of buffer PBST (PBS + 0.05% Tween-20). The signal intensity was quantified in relative units (RU), and binding affinity was determined using the dissociation constant (Kd). After the experiment, 10 mM glycine-HCl buffer solution (pH = 2) was selected to regenerate the chip surface.

[3] = system: BLM-induced PF, C57BL/6J mice; assay: BLM-induced PF in mice: RT-PCR of lung tissue; format: in vivo, mouse; settings: BLM lung tissue
Description: as §1
Based on the dosage of SDC2 fragment peptide and our experimental results (Supplementary Figure S10A and B), the dosage schedule of SDC4_87-131 was set as follows: starting on the third day after BLM inhalation, 1 mg/kg, administered via trachea infusion once every three days. And Anti-SDC4(93-121) 8 mg/kg was administered on the third and tenth days (reference dosage).
Total RNA was extracted from cells or lung tissue (10 mg) using Trizol reagent, and mRNA was reverse transcribed into cDNA using HiScript® II QRT SuperMix for qPCR (Vazyme, #R223-01). Real-time fluorescence quantitative PCR (RT-PCR) was performed using Hieff® qPCR SYB Green Master Mix (YEASEN, #11201ES08) to obtain the Ct value. The 2^−ΔΔCt method was used to obtain the relative expression level of mRNA in each group. Primers (Table 1) were purchased from Sangon Biotech.

integrin-αvβ1, sequence (P06756 31-992 limits assumed): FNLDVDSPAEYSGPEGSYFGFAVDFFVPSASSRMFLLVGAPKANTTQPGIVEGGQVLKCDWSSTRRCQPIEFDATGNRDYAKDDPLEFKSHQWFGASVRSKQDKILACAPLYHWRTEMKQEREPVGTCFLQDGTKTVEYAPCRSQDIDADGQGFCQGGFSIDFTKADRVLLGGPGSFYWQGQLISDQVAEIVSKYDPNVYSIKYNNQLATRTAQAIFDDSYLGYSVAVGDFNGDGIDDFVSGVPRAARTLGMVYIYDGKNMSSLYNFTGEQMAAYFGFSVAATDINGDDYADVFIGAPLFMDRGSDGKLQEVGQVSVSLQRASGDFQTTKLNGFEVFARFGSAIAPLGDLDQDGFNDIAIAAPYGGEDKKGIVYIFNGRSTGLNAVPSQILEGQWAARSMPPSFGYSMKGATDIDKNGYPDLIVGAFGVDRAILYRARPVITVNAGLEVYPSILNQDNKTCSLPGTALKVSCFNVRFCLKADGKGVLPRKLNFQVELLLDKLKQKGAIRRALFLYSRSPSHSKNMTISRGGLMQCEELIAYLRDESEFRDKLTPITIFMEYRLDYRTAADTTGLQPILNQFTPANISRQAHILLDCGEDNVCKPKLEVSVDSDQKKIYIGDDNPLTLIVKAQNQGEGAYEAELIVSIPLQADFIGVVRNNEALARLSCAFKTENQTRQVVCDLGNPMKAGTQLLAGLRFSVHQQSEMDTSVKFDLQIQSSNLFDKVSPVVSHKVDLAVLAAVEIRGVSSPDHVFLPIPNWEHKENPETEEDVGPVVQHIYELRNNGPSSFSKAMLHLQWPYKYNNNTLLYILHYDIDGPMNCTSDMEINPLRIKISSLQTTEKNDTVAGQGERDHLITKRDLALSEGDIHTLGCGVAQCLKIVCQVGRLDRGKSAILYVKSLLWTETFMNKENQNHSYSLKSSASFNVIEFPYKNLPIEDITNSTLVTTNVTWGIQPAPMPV
integrin-αvβ1, sequence (P05556 21-728 partner limits assumed): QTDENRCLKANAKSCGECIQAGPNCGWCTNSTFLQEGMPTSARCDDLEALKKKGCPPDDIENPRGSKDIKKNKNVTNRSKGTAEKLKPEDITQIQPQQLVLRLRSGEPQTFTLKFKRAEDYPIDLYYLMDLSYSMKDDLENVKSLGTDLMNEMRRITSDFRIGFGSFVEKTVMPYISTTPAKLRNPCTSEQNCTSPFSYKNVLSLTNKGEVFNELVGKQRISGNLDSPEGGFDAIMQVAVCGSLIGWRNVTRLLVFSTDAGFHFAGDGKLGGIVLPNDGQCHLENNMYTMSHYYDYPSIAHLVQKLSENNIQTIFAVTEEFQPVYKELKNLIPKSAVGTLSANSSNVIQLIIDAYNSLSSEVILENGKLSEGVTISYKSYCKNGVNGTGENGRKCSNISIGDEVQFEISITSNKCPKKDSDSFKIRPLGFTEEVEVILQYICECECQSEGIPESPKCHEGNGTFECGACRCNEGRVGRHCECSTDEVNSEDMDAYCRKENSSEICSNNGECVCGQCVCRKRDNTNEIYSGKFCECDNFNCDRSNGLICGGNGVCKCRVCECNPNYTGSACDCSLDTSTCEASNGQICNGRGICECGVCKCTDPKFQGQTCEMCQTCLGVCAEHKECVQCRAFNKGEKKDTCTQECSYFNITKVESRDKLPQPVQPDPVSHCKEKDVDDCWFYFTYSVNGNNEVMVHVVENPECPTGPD

## Ac-NHIPERAGSGSQVPTEPKKLEENEVIPKRISPVEESEDVSNKVSM-NH2 [SDC4_87-131]
SDC4/integrin-αv [1]
  interaction of integrin-αv and SDC4 in BLM lung tissue: could reduce the interaction of integrin-αv and SDC4
SDC4/integrin-β1
  integrin-β1/SDC4 interaction induced by dECM-PF: significantly reduce
SDC4/integrin-αv [2]
  integrin-αv/SDC4 interaction induced by dECM-PF: significantly reduce
pan-integrins
  pan-integrins activation: could inhibit pan-integrins activation
Cell migration
  cell adhesion and migration: reduces cell adhesion and migration
  cell migration: can inhibit cell migration comparably to the exogenous full-length SDC4
integrin-β1
  dECM-PF-induced integrin-β1 activation: significantly inhibited dECM-PF-induced integrin-β1 activation
integrin-αvβ1
  affinity (in words): nM level
[3]; 1 mg/kg ITD q3d, n=4–6
  mRNA levels of α-SMA, FN, Col I, TGF-β1, IL-1β, IL-6 and TNF-α: significantly reduced
[3]; n=4–5
  IL-6 downregulation vs C8: stronger effect in downregulating IL-6 than C8
